Test results published in patent US20060166287A1, “Method for Identifying compounds for suppressing metastasizing tumor cells” (priority 2002, published 2006).

System: c-Met
Experiment: c-Met activation (ERK phosphorylation) by pro-HGF versus active HGF in HT29 and BSp73Asv4-7Δ15 cell lines, Western blot
Assay type: cell-based
Details: HT29 and BSp73Asv4-7Δ15 cells with competent CD44 isoforms, FIG. 5
Text: HGF/SF is secreted as single-stranded precursor which is processed by serum proteinases (Shimomura, 1995) or plasminogen activators of the urokinase type (Naldini, 1995) into an active a form and β subunits. Investigations into whether CD44 is involved in the activation of HGF was employed HGF precursor which was purchased and isolated from Drosophila Schneider cells (S2) for the activation of c-Met (FIG. 5).
(B) Western blot analyses to investigate the cleavage of the precursors pro-HGF (HGFp; enriched from Drosophila Schneider cells (S2)) into the active form HGFa by means of CD44 in the HT29 and BSp73Asv4-7Δ15 cell lines. The pro form is unable, despite the presence of competent CD44 isoforms, to mediate ERK phosphorylation by c-Met activation. In contrast thereto, processed, active HGF is capable, with the assistance of competent CD44 isoforms, of c-Met activation.
(C) Western blot analysis to investigate the cleavage of the precursor pro-HGF (HGFp; commercial) into the active form HGFa by means of CD44 in the HT29 and BSp73Asv4-7Δ15 cell lines. The pro form is unable, despite the presence of competent CD44-isoforms, to mediate ERK phosphorylation by c-Met activation. In contrast thereto, processed, active HGF is capable, with the assistance of competent CD44 isoforms, of c-Met activation.

Q: For “pro-HGF: single-stranded HGF/SF precursor, purchased or isolated from Drosophila Schneider cells (S2)”, which “Ability to activate c-Met / mediate ERK phosphorylation” value is on record?
A: unable

Q: What about the “Ability to activate c-Met / mediate ERK phosphorylation” value (listed as pro form of HGF) of the same substance?
A: unable to activate c-Met
